Test results: US20250129070A1, “BIFUNCTIONAL ANDROGEN RECEPTOR COMPOUNDS” (priority 2023, published 2025)

How the values were obtained:
AR / CBP ternary complex = assay: Ternary complex formation assay (sandwich ELISA, AR capture / CBP detection) in VCaP cell lysates; assay type: cell-based; details: 1.5 hours treatment, sandwich ELISA (AR capture, CBP or p300 detection)
Procedure, shortened: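 VCaP cells (50K/well, 5% charcoal-stripped FBS, ≥3 days) treated with bifunctional compound for 1.5 h, then lysed 30 min at 4 °C. AR captured on anti-AR (AR 441) plates; bound CBP or p300 detected by rabbit mAb plus HRP secondary. QuantaRed chemifluorescence read at ex 570/em 585, immediately and at 5 and 15 min.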

VCaP cells = assay: VCaP growth inhibition assay; assay type: cell-based; details: 30 pM R1881, 9 days, CTG
Procedure, shortened: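 VCaP cells in phenol red-free DMEM/5% CSS, pre-incubated 72 h, then stimulated with R1881 (final 30 pM) and treated with 1:5 serial dilutions (final 100 nM to 10 fM) for 9 days at 37 °C. Viability by CellTiter-Glo luminescence; IC50 from 4-parameter logistic fit of RLU vs concentration.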

Row | SMILES | EC50 (AR / CBP ternary complex) | IC50 (VCaP cells)
1 | CC(=O)N1CCc2c(c(N3CCCc4ccc(C(F)F)cc43)nn2C2CC3(C2)CN(CC2CC4(C2)CN(c2ncc(C(=O)NC5C(C)(C)C(Oc6ccc(C#N)c(Cl)c6)C5(C)C)cn2)C4)C3)C1 (stereo not shown) [Compound 219, 2-[6-[[6-[5-acetyl-3-[7-(difluoromethyl)-3,4-dihydro-2H-quinolin-1-yl]-6,7-dihydro-4H-pyrazolo[4,3-c]pyridin-1-yl]-2-azaspiro[3.3]heptan-2-yl]methyl]-2-azaspiro[3.3]heptan-2-yl]-N-[3-(3-chloro-4-cyano-phenoxy)-2,2,4,4-tetramethyl-cyclobutyl]pyrimidine-5-carboxamide] | 1 to 10 nM | 0.1 to 1 nM
2 | C[C@@H]1CC(=O)Nc2cccc(-c3ccc4c(c3)c(-c3cnn(C)c3)nn4C3CCN(c4ncc(C(=O)NC5C(C)(C)C(Oc6ccc(C#N)c(Cl)c6)C5(C)C)cn4)CC3)c2N1 (stereo partly drawn) [Compound 60, N-[3-(3-chloro-4-cyano-phenoxy)-2,2,4,4-tetramethyl-cyclobutyl]-2-[4-[5-[(4R)-4-methyl-2-oxo-1,3,4,5-tetrahydro-1,5-benzodiazepin-6-yl]-3-(1-methylpyrazol-4-yl)indazol-1-yl]-1-piperidyl]pyrimidine-5-carboxamide] | > 100 nM | > 100 nM
3 | CC(=O)N1CCc2c(c(N3CCCc4cc(-c5cnn(C)c5)c(C(F)F)cc43)nn2C2CCN(Cc3ncc(C(=O)NC4C(C)(C)C(Oc5ccc(C#N)c(Cl)c5)C4(C)C)cn3)CC2)C1 (stereo not shown) [Compound 94, 2-[[4-[5-acetyl-3-[7-(difluoromethyl)-6-(1-methylpyrazol-4-yl)-3,4-dihydro-2H-quinolin-1-yl]-6,7-dihydro-4H-pyrazolo[4,3-c]pyridin-1-yl]-1-piperidyl]methyl]-N-[3-(3-chloro-4-cyano-phenoxy)-2,2,4,4-tetramethyl-cyclobutyl]pyrimidine-5-carboxamide] | 10 to 100 nM | 1 to 100 nM
4 | CC(=O)N1CCc2c(c(-c3cccc4cc(-c5ccc(CC6CC7(C6)CN(c6ncc(C(=O)NC8C(C)(C)C(Oc9ccc(C#N)c(Cl)c9)C8(C)C)cn6)C7)nc5)ncc34)nn2C2CCOCC2)C1 (stereo not shown) [Compound 228, 2-[6-[[5-[8-(5-acetyl-1-tetrahydropyran-4-yl-6,7-dihydro-4H-pyrazolo[4,3-c]pyridin-3-yl)-3-isoquinolyl]-2-pyridyl]methyl]-2-azaspiro[3.3]heptan-2-yl]-N-[3-(3-chloro-4-cyano-phenoxy)-2,2,4,4-tetramethyl-cyclobutyl]pyrimidine-5-carboxamide] | 1 to 10 nM | 0.1 to 1 nM
5 | CC(=O)N1CCc2c(c(N3CCc4cc(-c5cnn(C)c5)c(C(F)F)cc43)nn2C2CCN(CC3CCN(c4ncc(C(=O)NC5C(C)(C)C(Oc6ccc(C#N)c(Cl)c6)C5(C)C)cn4)CC3)CC2)C1 (stereo not shown) [Compound 13, 2-[4-[[4-[5-acetyl-3-[6-(difluoromethyl)-5-(1-methylpyrazol-4-yl)indolin-1-yl]-6,7-dihydro-4H-pyrazolo[4,3-c]pyridin-1-yl]-1-piperidyl]methyl]-1-piperidyl]-N-[3-(3-chloro-4-cyano-phenoxy)-2,2,4,4-tetramethyl-cyclobutyl]pyrimidine-5-carboxamide] | 1 to 10 nM | 0.1 to 1 nM
6 | CC(=O)N1CCc2c(c(N3CCCc4cc(-c5cnn(C)c5)c(C(F)F)cc43)nn2C2CCN([C@@H]3CCCN(c4ncc(C(=O)NC5C(C)(C)C(Oc6ccc(C#N)c(Cl)c6)C5(C)C)cn4)C3)CC2)C1 (stereo partly drawn) [Compound 398, 2-[(3R)-3-[4-[5-acetyl-3-[7-(difluoromethyl)-6-(1-methylpyrazol-4-yl)-3,4-dihydro-2H-quinolin-1-yl]-6,7-dihydro-4H-pyrazolo[4,3-c]pyridin-1-yl]-1-piperidyl]-1-piperidyl]-N-[3-(3-chloro-4-cyano-phenoxy)-2,2,4,4-tetramethyl-cyclobutyl]pyrimidine-5-carboxamide] | 1 to 10 nM | 1 to 100 nM

The remaining lines, values ahead:

Row | EC50 (AR / CBP ternary complex) | IC50 (VCaP cells) | SMILES
7 | < 1 nM | 0.1 to 1 nM | COc1cc(OC2C(C)(C)C(NC(=O)c3ccc(N4CC[C@@H](N5CCC(n6nc(N7CCCc8cc(-c9cnn(C)c9)c(C(F)F)cc87)c7c6CCN(C(C)=O)C7)CC5)C4)cc3)C2(C)C)ccc1C#N (stereo partly drawn) [Compound 337, 4-[(3R)-3-[4-[5-acetyl-3-[7-(difluoromethyl)-6-(1-methylpyrazol-4-yl)-3,4-dihydro-2H-quinolin-1-yl]-6,7-dihydro-4H-pyrazolo[4,3-c]pyridin-1-yl]-1-piperidyl]pyrrolidin-1-yl]-N-[3-(4-cyano-3-methoxy-phenoxy)-2,2,4,4-tetramethyl-cyclobutyl]benzamide]
8 | < 1 nM | 0.1 to 1 nM | CC(=O)N1CCc2c(c(N3CCCc4cc(-c5cnn(C)c5)c(C(F)F)cc43)nn2CCCOC2CCN(c3ncc(C(=O)NC4C(C)(C)C(Oc5ccc(C#N)c(Cl)c5)C4(C)C)cn3)CC2)C1 (stereo not shown) [Compound 9, 2-[4-[3-[5-acetyl-3-[7-(difluoromethyl)-6-(1-methylpyrazol-4-yl)-3,4-dihydro-2H-quinolin-1-yl]-6,7-dihydro-4H-pyrazolo[4,3-c]pyridin-1-yl]propoxy]-1-piperidyl]-N-[3-(3-chloro-4-cyano-phenoxy)-2,2,4,4-tetramethyl-cyclobutyl]pyrimidine-5-carboxamide]
9 | < 1 nM | 0.1 to 1 nM | COc1cc(OC2C(C)(C)C(NC(=O)c3ccc(N4CC(OC5CCC(n6nc(N7CCCc8cc(-c9cnn(C)c9)c(C(F)F)cc87)c7c6CCN(C(C)=O)C7)CC5)C4)cc3)C2(C)C)ccc1C#N (stereo not shown) [Compound 342, 4-[3-[4-[5-acetyl-3-[7-(difluoromethyl)-6-(1-methylpyrazol-4-yl)-3,4-dihydro-2H-quinolin-1-yl]-6,7-dihydro-4H-pyrazolo[4,3-c]pyridin-1-yl]cyclohexoxy]azetidin-1-yl]-N-[3-(4-cyano-3-methoxy-phenoxy)-2,2,4,4-tetramethyl-cyclobutyl]benzamide]
10 | < 1 nM | 1 to 100 nM | CC(=O)N1CCc2c(c(-c3cccc4cc(-c5ccc(C(=O)NCCc6ncc(C(=O)NC7C(C)(C)C(Oc8ccc(C#N)c(Cl)c8)C7(C)C)cn6)nc5)ncc34)nn2C2CCOCC2)C1 (stereo not shown) [Compound 78, 2-[2-[[5-[8-(5-acetyl-1-tetrahydropyran-4-yl-6,7-dihydro-4H-pyrazolo[4,3-c]pyridin-3-yl)-3-isoquinolyl]pyridine-2-carbonyl]amino]ethyl]-N-[3-(3-chloro-4-cyano-phenoxy)-2,2,4,4-tetramethyl-cyclobutyl]pyrimidine-5-carboxamide]
11 | < 1 nM | 0.1 to 1 nM | CC(=O)N1CCc2c(c(N3CCCc4cc(-c5cnn(C)c5)c(C)cc43)nn2C2CCN(C3CCC4(CC3)CN(c3ncc(C(=O)NC5C(C)(C)C(Oc6ccc(C#N)c(Cl)c6)C5(C)C)cn3)C4)CC2)C1 (stereo not shown) [Compound 468, 2-[7-[4-[5-acetyl-3-[7-methyl-6-(1-methylpyrazol-4-yl)-3,4-dihydro-2H-quinolin-1-yl]-6,7-dihydro-4H-pyrazolo[4,3-c]pyridin-1-yl]-1-piperidyl]-2-azaspiro[3.5]nonan-2-yl]-N-[3-(3-chloro-4-cyano-phenoxy)-2,2,4,4-tetramethyl-cyclobutyl]pyrimidine-5-carboxamide]
